{"source": "patent US20210008118A1", "about": "“METHOD FOR ENHANCING MIGRATION OF STEM CELLS INTO CANCER CELLS” (GACHON UNIVERSITY OF INDUSTRY-ACADEMIC COOPERATION …, priority 2019, published 2021)", "test_system": "mesenchymal stem cells (BMMSCs, ADMSCs) migrating into cancer cells (A549, H1975, PANC-1, U87MG)", "assay": "Transwell migration of stem cells treated with ion channel inhibitor DIDS or ion channel antibodies", "format": "cell-based", "conditions": "500 μM DIDS or ion channel antibodies; all cancer cells used (A549, H1975, PANC-1, U87MG)", "procedure": "In vitro mobility measurement of stem cells according to an embodiment of the present invention was performed using a transwell membrane bilayer plate having a pore size of 8 μm. Cancer cells for stimulating the stem cells were cultured in the layer under the membrane, and the stem cells were cultured in the upper chamber to allow the cells to penetrate downward. At this time, the mobility was measured through the number of stem cells infiltrated the membrane.\nIn order to investigate the effect of ion channel activity on the ability of stem cells to migrate into cancer cells, the present inventors performed an analysis similar to Example 1-1 using DIDS (4,4′-Diisothiocyano-2,2′-stilbenedisulfonic acid) which is an ion channel inhibitor and antibodies specifically binding to ion channels (SLC4A4, SLC4A7). Particularly, in the case of lung cancer cells, 5×10^4 of bone marrow-derived mesenchymal stem cells (BMMSCs) as a control group and lung cancer cells (A549 and H1975) as an experimental group were dispensed onto the lower well, respectively, and cultured at 37° C. for 24 hours. […] Subsequently, stem cells migrated into the lower well through the transwell membrane were counted trough a confocal fluorescence microscope in order to measure their mobility (FIGS. 3A to 4D)."}
{"smiles": "O=S(=O)(O)c1cc(N=C=S)ccc1C=Cc1ccc(N=C=S)cc1S(=O)(=O)O", "note": "[DIDS, 4,4′-Diisothiocyano-2,2′-stilbenedisulfonic acid]", "values": [{"measurement": "ability of the mesenchymal stem cells to migrate into cancer cells", "value": "decreased significantly"}]}
